Source: the supplement of paper PMC4862054

Key:
Settings in all cases: incubation time: 72 h
HCC1937 [1] = test: normalised response (% of control), CellTiter-Glo; higher = more viable cells (100 = DMSO, 0 = benzethonium chloride kill control)
Experimental: (§1)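 DSRT, 72 h incubation, CellTox Green / CellTiter-Glo readout. Signal is normalised to DMSO and benzethonium chloride controls. Value is the normalised response at the highest dose.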

CAL-51 [2] = test: as above
Experimental: as §1

HCC1599 [3] = test: as above
Experimental: as §1

MDA-MB-436 [4] = test: as above
Experimental: as §1

CAL-148 [5] = test: as above
Experimental: as §1

BT-474 [6] = test: as above
Experimental: as §1

DU-4475 [7] = test: as above
Experimental: as §1

SK-BR-3 = test: as above
Experimental: as §1

Hs578T [8] = test: as above
Experimental: as §1

CAL-120 [9] = test: as above
Experimental: as §1

MFM-223 [10] = test: as above
Experimental: as §1

HDQ-P1 [11] = test: as above
Experimental: as §1

MDA-MB-453 [12] = test: as above
Experimental: as §1

MDA-MB-231 [13] = test: as above
Experimental: as §1

CAL-85-1 [14] = test: as above
Experimental: as §1

HCC1143 [15] = test: as above
Experimental: as §1

BT-549 [16] = test: as above
Experimental: as §1

MDA-MB-468 [17] = test: as above
Experimental: as §1

MCF-10A [18] = test: as above
Experimental: as §1

CAL-51 [19] = test: normalised response (% of control), CellTox Green; higher = less cell death (100 = DMSO, 0 = benzethonium chloride kill control)
Summary of the method: (§2)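 Each value is the plate-normalised signal at one concentration of the series. Breast cancer cell lines (20 µl suspension) were incubated 72 h in 384-well plates with compound at 5 concentrations in 10-fold steps over a compound-specific 10,000-fold range. CellTox Green and then CellTiter-Glo were read, and each plate was scaled to 0.1 % DMSO (100) and a positive kill control (0).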

HCC1599 [20] = test: as above
Summary of the method: as §2

MDA-MB-436 [21] = test: as above
Summary of the method: as §2

CAL-148 [22] = test: as above
Summary of the method: as §2

BT-474 [23] = test: as above
Summary of the method: as §2

DU-4475 [24] = test: as above
Summary of the method: as §2

Hs578T [25] = test: as above
Summary of the method: as §2

CAL-120 [26] = test: as above
Summary of the method: as §2

MFM-223 [27] = test: as above
Summary of the method: as §2

HDQ-P1 [28] = test: as above
Summary of the method: as §2

MDA-MB-453 [29] = test: as above
Summary of the method: as §2

MDA-MB-231 [30] = test: as above
Summary of the method: as §2

CAL-85-1 [31] = test: as above
Summary of the method: as §2

HCC1143 [32] = test: as above
Summary of the method: as §2

BT-549 [33] = test: as above
Summary of the method: as §2

MDA-MB-468 [34] = test: as above
Summary of the method: as §2

MCF-10A [35] = test: as above
Summary of the method: as §2

HCC1937 [36] = test: as above
Summary of the method: as §2

| Structure (SMILES) | normalised response (HCC1937 [1]) [%] | normalised response (CAL-51 [2]) [%] | normalised response (HCC1599 [3]) [%] | normalised response (MDA-MB-436 [4]) [%] | normalised response (CAL-148 [5]) [%] | normalised response (BT-474 [6]) [%] | normalised response (DU-4475 [7]) [%] | normalised response (SK-BR-3) [%] | normalised response (Hs578T [8]) [%] | normalised response (CAL-120 [9]) [%] | normalised response (MFM-223 [10]) [%] | normalised response (HDQ-P1 [11]) [%] | normalised response (MDA-MB-453 [12]) [%] | normalised response (MDA-MB-231 [13]) [%] | normalised response (CAL-85-1 [14]) [%] | normalised response (HCC1143 [15]) [%] | normalised response (BT-549 [16]) [%] | normalised response (MDA-MB-468 [17]) [%] | normalised response (MCF-10A [18]) [%] | normalised response (CAL-51 [19]) [%] | normalised response (HCC1599 [20]) [%] | normalised response (MDA-MB-436 [21]) [%] | normalised response (CAL-148 [22]) [%] | normalised response (BT-474 [23]) [%] | normalised response (DU-4475 [24]) [%] | normalised response (Hs578T [25]) [%] | normalised response (CAL-120 [26]) [%] | normalised response (MFM-223 [27]) [%] | normalised response (HDQ-P1 [28]) [%] | normalised response (MDA-MB-453 [29]) [%] | normalised response (MDA-MB-231 [30]) [%] | normalised response (CAL-85-1 [31]) [%] | normalised response (HCC1143 [32]) [%] | normalised response (BT-549 [33]) [%] | normalised response (MDA-MB-468 [34]) [%] | normalised response (MCF-10A [35]) [%] | normalised response (HCC1937 [36]) [%] |
| --- | --- | --- | --- | --- | --- | --- | --- | --- | --- | --- | --- | --- | --- | --- | --- | --- | --- | --- | --- | --- | --- | --- | --- | --- | --- | --- | --- | --- | --- | --- | --- | --- | --- | --- | --- | --- | --- |
| O=C(O)c1ccc(-c2c[nH]c3ncc(-c4ccccc4)cc23)cc1C1CCCC1 (10000 nM) | 105 | 92.7 | 105 | 84.2 | 94.4 | 86.7 | 86.2 | 58.7 | 89 | 94.5 | 95 | 107 | 105 | 94.1 | 99.3 | 97.8 | 74.5 | 57 | 97.1 | 63.4 | 94 | 57.9 | 91.6 | 95.4 | 97.5 | 117 | 99.2 | 66.2 | 91 | 102 | 92.8 | 119 | 117 | 99.3 | 90.1 | 83.6 | – |
| NC(=O)Nc1cc(-c2cccc(F)c2)sc1C(=O)N[C@H]1CCCNC1 [AZD7762] (1000 nM) | 26.4 | 45.3 | 10.2 | 28.8 | 106 | 43 | 89.3 | 12 | 22.1 | 55.7 | 64.2 | 28 | 40.8 | 32 | 15.2 | 23.7 | 21.2 | 31.7 | 31.1 | 14.1 | 98 | 84.9 | 87.1 | 91.9 | 99.9 | 40.7 | 91.8 | 95.8 | 90.3 | 87 | 48.5 | -20.6 | 103 | 94.3 | 75.8 | 90.8 | 65.8 |
| COc1cc2ncnc(Nc3ccc(F)c(Cl)c3)c2cc1NC(=O)/C=C/CN1CCCCC1 [Dacomitinib] (1000 nM) | 84.3 | 116 | 105 | 84.4 | 83.9 | 86.8 | 97.8 | 21.1 | 90.7 | 95.6 | 93.1 | 68.1 | 56.2 | 84.5 | 46.8 | 94 | 80.9 | 65.3 | 35.8 | 109 | 99.1 | – | 96.7 | – | 99.1 | 115 | 98.7 | 99.5 | 94.1 | 96.3 | 103 | 38.7 | 75.7 | 74.8 | 121 | 96.8 | – |
| CC(C)Cn1cnc2c(N)nc3ccccc3c21 [Imiquimod] (2500 nM) | 99.6 | 92.8 | 94.9 | 106 | 106 | 96 | 103 | 106 | 105 | 95.8 | 103 | 103 | 105 | 98.2 | 104 | 94.5 | 98 | 109 | 95 | 106 | 101 | 102 | 100 | 101 | 99.3 | 130 | 96.6 | – | – | 93.9 | 96.5 | 83.7 | 104 | 72.1 | – | 88.2 | 106 |
| N#CCNC(=O)c1ccc(-c2ccnc(Nc3ccc(N4CCOCC4)cc3)n2)cc1 [Momelotinib] (10000 nM) | 84.5 | 58 | 96.8 | 71 | 97.3 | 55.8 | 64.8 | 55.1 | 41.4 | 50.2 | 67.2 | 87.1 | 104 | 46.8 | 43.7 | 66.6 | 23.5 | 22.2 | 43 | 85.1 | 90 | 78 | 100 | 101 | 95.5 | 87 | 97.4 | 97.5 | 100 | 70.6 | 19 | 54.6 | 98 | 31.3 | 22 | 90.5 | 102 |
| CCCCCCCCCCCCCCCCCCOP(=O)([O-])OC1CC[N+](C)(C)CC1 [Perifosine] (2500 nM) | 52.7 | 80.7 | 86.3 | 87.9 | 79.9 | 104 | 95.9 | 60.4 | 96.9 | 104 | 92.6 | 84.7 | 98.6 | 104 | 102 | 99.1 | 111 | 97.5 | 63.7 | 96.4 | 99.3 | 78 | 96.9 | 95.6 | 95.7 | 128 | 107 | 90.3 | 109 | 83.9 | 106 | 97.4 | 67 | 56.7 | 133 | 117 | 108 |
| CS(=O)(=O)c1ccc(C2=C(c3ccccc3)C(=O)OC2)cc1 [Rofecoxib] (10000 nM) | 106 | 71.8 | 100 | 111 | 119 | 94.5 | 100 | 106 | 110 | 102 | 102 | 99.8 | 98.6 | 100 | 100 | 105 | 103 | 113 | 109 | 98.7 | 97.2 | 77.7 | 98.8 | – | 101 | 128 | 105 | 68.2 | 112 | 66.6 | 108 | 84.6 | 114 | 102 | – | 102 | – |
| CCC(C)(C)C(=O)O[C@H]1C[C@@H](C)C=C2C=C[C@H](C)[C@H](CC[C@@H]3C[C@@H](O)CC(=O)O3)[C@H]21 [Simvastatin] (10000 nM) | 92.6 | 78.4 | 103 | 84.9 | 102 | 47.2 | 94.2 | 98.9 | 91.2 | 91.8 | 97.9 | 65 | 93.3 | 30 | 84.4 | 95.9 | 87.7 | 83.2 | 23.9 | 46.8 | – | 51.8 | 104 | 99.9 | 99 | – | 77.4 | 104 | 82.2 | 104 | -117 | 84.3 | – | 98.6 | – | 23.2 | 95.6 |
| CC(=O)Nc1ccc(C(=O)Nc2ccccc2N)cc1 [Tacedinaline] (1000 nM) | 97.2 | 113 | 120 | 95 | 95.2 | 95.2 | 98 | 98.9 | 92.1 | 105 | 99.7 | 98.5 | 98.7 | 95.7 | 103 | 100 | 107 | 108 | 99.7 | 96.2 | 98.2 | 107 | 97.9 | 97.7 | 99 | 99.3 | 101 | 105 | 104 | 98.2 | 111 | 92.3 | 75.3 | 114 | 58.9 | 77.3 | 83.6 |
